# Reference: patent US10556896B2, “Crystalline forms of (3-Amino-oxetan-3-ylmethyl)-[2-(5,5-dioxo-5,6,7,9-tetrahydro-5lambda*6*-thia-8-aza-benzocyclohepten-8-yl)-6-methyl-quinazolin-4-yl]-amine” (Hoffmann-La Roche Inc., priority 2016, dated 2020)
# Columns and labels:
# Assay type in all cases: physicochemical
# [1] = Hygroscopicity of crystal forms by dynamic vapour sorption (DVS); details: for Hygroscopicity, water sorption @80% RH: 25° C.; for Hygroscopicity (result in words): compared with Form D
# Procedure: Dynamic vapour sorption (DVS) was tested using a DVS intrinsic from SMS (Surface Measurement Systems Co. Ltd.). 20 mg compound (I) of each crystal form was placed in an aluminium sample pan and recorded the sample weight change under different humidity. The DVS method parameters were set according to Table 16, and the method was run by the machine based on such parameters. [table]
# [2] = Equilibrium aqueous solubility in bio-relevant media (SGF, FaSSIF, FeSSIF); details: for Final pH (FaSSIF) / Final pH (FeSSIF) / Final pH (SGF): after equilibration at 25° C. for 24 hours
# Procedure: Aqueous solubility was determined by suspending 10 mg compound in different bio-relevant media including SGF, FaSSIF and FeSSIF. The suspension was equilibrated at 25° C. for 24 hours then the final pH was measured. The suspension was then filtered through a 0.22 um PVDF filter into a 2-mL HPLC vial. The quantitation was conducted by HPLC (described in Example 10) with reference to a standard solution.
# [3] = Chemical stability of crystal forms (storage, HPLC chemical purity)
# Procedure: HPLC condition is disclosed here in Table 1-1. [table] 40 mg compound (I) of crystal Forms C, E and F were stored in stability chamber with temperature and humidity controlled as 50° C. and 40° C./75% RH respectively, 40 mg compound (I) of Form B was stored at 105° C. oven. After each time point, the samples were analyzed by HPLC to check their chemical purity and compared with their initial value.
"Hygroscopicity, water sorption @80% RH [1]",Hygroscopicity (result in words) [1],"S, mg/mL (FaSSIF) ([2]; 25° C., 24 hours)",Final pH (FaSSIF) [2],"S, mg/mL (FeSSIF) ([2]; FeSSIF, 25° C., 24 hours)",Final pH (FeSSIF) ([2]; FeSSIF),"S, mg/mL (SGF) ([2]; 25° C., 24 hours)",Final pH (SGF) [2],"Chemical Purity, % ([3]; 40° C./75% RH, 1 month)","Chemical Purity, % ([3]; 50° C., 1 month)","Chemical Purity, % ([3]; Initial)","solubility thermodynamic at 24 h ([2]; FeSSIF, 25 °C, fessif, thermodynamic from solid, FeSSIF, 25° C., 24 hours, read-out: S, mg/mL (FeSSIF))","Chemical Purity, % ([3]; 105° C., 24 hr)",Compound
1.12% water sorption @80% RH,much improved hygroscopicity than Form D,0.90 mg/mL,5.31,–,5.34,>5 mg/mL,4.69,99.14%,99.45%,99.49%,2.18 mg/mL,–,"Cc1ccc2nc(N3CCS(=O)(=O)c4ccccc4C3)nc(NCC3(N)COC3)c2c1 [Example 5, Form E of compound (I), (3-Amino-oxetan-3-ylmethyl)-[2-(5,5-dioxo-5,6,7,9-tetrahydro-5lambda*6*-thia-8-aza-benzocyclohepten-8-yl)-6-methyl-quinazolin-4-yl]-amine]"
0.50% water sorption @80% RH,much improved hygroscopicity than Form D,1.58 mg/mL,4.99,1.99 mg/mL,5.18,–,3.15,99.42%,99.43%,99.62%,–,–,"Cc1ccc2nc(N3CCS(=O)(=O)c4ccccc4C3)nc(NCC3(N)COC3)c2c1 [Example 6, Form F of compound (I), (3-Amino-oxetan-3-ylmethyl)-[2-(5,5-dioxo-5,6,7,9-tetrahydro-5lambda*6*-thia-8-aza-benzocyclohepten-8-yl)-6-methyl-quinazolin-4-yl]-amine]"

# The next lines start with the compound.
Compound,"Hygroscopicity, water sorption @80% RH [1]",Hygroscopicity (result in words) [1],"S, mg/mL (FaSSIF) ([2]; 25° C., 24 hours)",Final pH (FaSSIF) [2],"S, mg/mL (FeSSIF) ([2]; FeSSIF, 25° C., 24 hours)",Final pH (FeSSIF) ([2]; FeSSIF),"S, mg/mL (SGF) ([2]; 25° C., 24 hours)",Final pH (SGF) [2],"Chemical Purity, % ([3]; 40° C./75% RH, 1 month)","Chemical Purity, % ([3]; 50° C., 1 month)","Chemical Purity, % ([3]; Initial)","solubility thermodynamic at 24 h ([2]; FeSSIF, 25 °C, fessif, thermodynamic from solid, FeSSIF, 25° C., 24 hours, read-out: S, mg/mL (FeSSIF))","Chemical Purity, % ([3]; 105° C., 24 hr)"
"Cc1ccc2nc(N3CCS(=O)(=O)c4ccccc4C3)nc(NCC3(N)COC3)c2c1 [Example 1, Form A of compound (I), (3-Amino-oxetan-3-ylmethyl)-[2-(5,5-dioxo-5,6,7,9-tetrahydro-5lambda*6*-thia-8-aza-benzocyclohepten-8-yl)-6-methyl-quinazolin-4-yl]-amine]",0.25% water sorption @80% RH,much improved hygroscopicity than Form D,0.12 mg/mL,6.60,1.72 mg/mL,5.31,2.40 mg/mL,4.80,–,–,–,–,–
"Cc1ccc2nc(N3CCS(=O)(=O)c4ccccc4C3)nc(NCC3(N)COC3)c2c1 [Example 4, Form D of compound (I), (3-Amino-oxetan-3-ylmethyl)-[2-(5,5-dioxo-5,6,7,9-tetrahydro-5lambda*6*-thia-8-aza-benzocyclohepten-8-yl)-6-methyl-quinazolin-4-yl]-amine]",7.52% water sorption @80% RH,not suitable for further drug development,–,–,–,–,–,–,–,–,–,–,–
"Cc1ccc2nc(N3CCS(=O)(=O)c4ccccc4C3)nc(NCC3(N)COC3)c2c1 [Example 3, Form C of compound (I), (3-Amino-oxetan-3-ylmethyl)-[2-(5,5-dioxo-5,6,7,9-tetrahydro-5lambda*6*-thia-8-aza-benzocyclohepten-8-yl)-6-methyl-quinazolin-4-yl]-amine]",0.04% water sorption @80% RH,much improved hygroscopicity than Form D,0.11 mg/mL,6.63,1.88 mg/mL,5.26,3.81 mg/mL,4.92,99.28%,99.32%,99.30%,–,–
"Cc1ccc2nc(N3CCS(=O)(=O)c4ccccc4C3)nc(NCC3(N)COC3)c2c1 [Example 2, Form B of compound (I), (3-Amino-oxetan-3-ylmethyl)-[2-(5,5-dioxo-5,6,7,9-tetrahydro-5lambda*6*-thia-8-aza-benzocyclohepten-8-yl)-6-methyl-quinazolin-4-yl]-amine]",–,–,–,–,–,–,–,–,–,–,99.81%,–,99.80%
